Experimental data reported in patent US20130344026A1, “Dimeric Smac Mimetics” (priority 2009, published 2013).
Read-outs that look alike come from different tables or passages of the source.

Tested on: PANC-1 cells
Test: cell viability assay in PANC-1 cells (compound alone, + 100 ng/ml TNFa, + 300 ng/ml TRAIL)
Type: cell-based
[1] = Homo sapiens, PANC-1, compound alone, Tables 6-10, read-out: IC50 (μM) in cell viability assay in PANC-1 cells: Compound alone
[2] = with 100 ng/ml TNFa, Tables 6-10, read-out: IC50 (μM) in cell viability assay in PANC-1 cells: Compound + 100 ng/ml TNFa
[3] = with 300 ng/ml TRAIL, Tables 6-10, read-out: IC50 (μM) in cell viability assay in PANC-1 cells: Compound + 300 ng/ml TRAIL
[4] = Homo sapiens, PANC-1, compound alone, Tables 15-18, read-out: IC50 (uM) in cell viability assay in PANC-1 cells: Cmpnd alone
[5] = with 100 ng/ml TNFa, Tables 15-18, read-out: IC50 (uM) in cell viability assay in PANC-1 cells: Cmpnd + 100 ng/ml TNFa
[6] = with 300 ng/ml TRAIL, Tables 15-18, read-out: IC50 (uM) in cell viability assay in PANC-1 cells: Cmpnd + 300 ng/ml TRAIL
[7] = Homo sapiens, PANC-1 cells, compound alone, read-out: IC50 (uM) in cell viability assay in PANC-1 cells, Cmpnd alone
[8] = PANC-1 cells, + 100 ng/ml TNFa, read-out: IC50 (uM) in cell viability assay in PANC-1 cells, Cmpnd + 100 ng/ml TNFa
[9] = PANC-1 cells, + 300 ng/ml TRAIL, read-out: IC50 (uM) in cell viability assay in PANC-1 cells, Cmpnd + 300 ng/ml TRAIL
[10] = compound alone, Tables 6-10, read-out: IC50 (μM) in cell viability assay in PANC-1 cells: Compound alone

IC50 [1] [µM]	IC50 [2] [µM]	IC50 [3] [µM]	SMILES	further results
> 1	0.013	0.012	CN[C@@H](C)C(=O)N[C@H](C(=O)N1C[C@@H](NC(=O)CCc2ccc(C(=O)N[C@H]3C[C@@H](C(=O)N[C@@H]4CCCc5ccccc54)N(C(=O)[C@@H](NC(=O)[C@H](C)NC)C(C)(C)C)C3)cc2)C[C@H]1C(=O)N[C@@H]1CCCc2ccccc21)C(C)(C)C [Compound 191]	
> 1	0.046	0.084	CN[C@@H](C)C(=O)N[C@@H](CC(=O)NCC[C@H](NC(=O)[C@@H](NC(=O)[C@H](C)NC)C(C)(C)C)C(=O)N[C@@H]1CCCc2ccccc21)C(=O)N1CCC[C@H]1C(=O)N[C@@H]1CCCc2ccccc21 [Compound 200]	
> 1	0.006	0.006	CN[C@@H](C)C(=O)N[C@@H](CCCCCC[C@H](NC(=O)[C@H](C)NC)C(=O)N1C[C@@H](F)C[C@H]1C(=O)N[C@@H]1CCCc2ccccc21)C(=O)N1C[C@H](F)C[C@H]1C(=O)N[C@@H]1CCCc2ccccc21 [Compound 106]	
> 1	0.015	0.015	CN[C@@H](C)C(=O)N[C@H](C(=O)N[C@@H](CCNC(=O)c1cccc(C(=O)N[C@H]2C[C@@H](C(=O)N[C@@H]3CCCc4ccccc43)N(C(=O)[C@@H](NC(=O)[C@H](C)NC)C(C)(C)C)C2)c1)C(=O)N[C@@H]1CCCc2ccccc21)C(C)C [Compound 170]	
> 1	0.215	0.198	CN[C@@H](C)C(=O)N[C@H](C(=O)N1C[C@@H](NC(=O)c2cccc(C(=O)N[C@H]3C[C@@H](C(=O)N[C@@H]4CCCc5ccc(OC)cc54)N(C(=O)[C@@H](NC(=O)[C@H](C)NC)C(C)(C)C)C3)c2)C[C@H]1C(=O)N[C@@H]1CCCc2ccc(OC)cc21)C(C)(C)C [Compound 44]	
> 1	0.383	0.217	CN[C@@H](C)C(=O)N[C@H](C(=O)N1C[C@@H](NC(=O)c2cccc(C(=O)N[C@H]3C[C@@H](C(=O)NCc4cccc5[nH]ccc45)N(C(=O)[C@@H](NC(=O)[C@H](C)NC)C(C)(C)C)C3)c2)C[C@H]1C(=O)NCc1cccc2[nH]ccc12)C(C)(C)C [Compound 7]	
			CN[C@@H](C)C(=O)N[C@@H](CCC(=O)Nc1cccc(C#Cc2cccc(NC(=O)CC[C@H](NC(=O)[C@H](C)NC)C(=O)N3CCC[C@H]3C(=O)N[C@@H]3CCCc4ccccc43)c2)c1)C(=O)N1CCC[C@H]1C(=O)N[C@@H]1CCCc2ccccc21 [Compound P2-49]	IC50 [4]: > 1 µM; IC50 [5]: 0.033 µM; IC50 [6]: 0.033 µM
			CN[C@@H](C)C(=O)N[C@H](C(=O)N1C[C@@H](N(C)C(=O)c2cc(C(=O)N(C)[C@H]3C[C@@H](C(=O)N[C@H](C)c4ccccc4)N(C(=O)[C@@H](NC(=O)[C@H](C)NC)C(C)(C)C)C3)[nH]n2)C[C@H]1C(=O)N[C@H](C)c1ccccc1)C(C)(C)C [Compound P3-109]	IC50 [7]: > 1 µM; IC50 [8]: 0.028 µM; IC50 [9]: 0.049 µM
> 1	> 1	> 1	CN[C@@H](C)C(=O)Nc1nc(CC(=O)NCC[C@H](NC(=O)[C@@H](NC(=O)[C@H](C)NC)C(C)(C)C)C(=O)N[C@@H]2CCCc3ccccc32)cs1 [Compound 190]	
			CN[C@@H](C)C(=O)N[C@@H](Cc1ccc(NC(=O)Nc2ccc(C[C@H](NC(=O)[C@H](C)NC)C(=O)N3CCC[C@H]3C(=O)N[C@@H]3CCCc4ccccc43)cc2)cc1)C(=O)N1CCC[C@H]1C(=O)N[C@@H]1CCCc2ccccc21 [Compound P2-38]	IC50 [4]: > 1 µM; IC50 [5]: 0.021 µM; IC50 [6]: 0.037 µM
			CN[C@@H](C)C(=O)N[C@H](C(=O)N1C[C@@H](NC(=O)c2ccc3cc(C(=O)NCC[C@H](NC(=O)[C@@H](NC(=O)[C@H](CO)NC)C4CCCCC4)C(=O)N[C@H](C)C(C)C)ccc3c2)C[C@H]1C(=O)N[C@@H]1CCCc2ccccc21)C(C)(C)C [Compound H-10]	IC50 [4]: > 1 µM; IC50 [5]: 0.001 µM; IC50 [6]: 0.0009 µM
> 1	0.375	0.293	CN[C@@H](C)C(=O)N[C@H](C(=O)N1C[C@@H](NC(=O)c2cccc(C(=O)N[C@H]3C[C@@H](C(=O)N[C@H](C)c4ccccn4)N(C(=O)[C@@H](NC(=O)[C@H](C)NC)C(C)(C)C)C3)c2)C[C@H]1C(=O)N[C@H](C)c1ccccn1)C(C)(C)C [Compound 25]	
> 1	0.044	0.063	CN[C@@H](C)C(=O)N[C@H](C(=O)N[C@@H](CCNC(=O)CC[C@H](NC(=O)[C@@H](NC(=O)[C@H](C)NC)C(C)(C)C)C(=O)N[C@@H]1CCCc2ccccc21)C(=O)N[C@@H]1CCCc2ccccc21)C(C)(C)C [Compound 171]	
			CN[C@@H](C)C(=O)N[C@H](C(=O)N1CCC[C@H]1c1cc(C(=O)OC)c(-c2cn(CCCCCCn3cc(-c4oc([C@@H]5CCCN5C(=O)[C@@H](NC(=O)[C@H](C)NC)C(C)(C)C)cc4C(=O)OC)c4ccccc43)c3ccccc23)o1)C(C)(C)C [Compound P4-27]	IC50 [4]: > 1 µM; IC50 [5]: 0.0243 µM; IC50 [6]: 0.0294 µM
> 1	0.046	0.074	CN[C@@H](C)C(=O)N[C@@H](CCCCNC(=O)C[C@H](NC(=O)[C@H](C)NC)C(=O)N1CCC[C@H]1C(=O)N[C@@H]1CCCc2ccccc21)C(=O)N1CCC[C@H]1C(=O)N[C@@H]1CCCc2ccccc21 [Compound 199]	
			CN[C@@H](C)C(=O)N[C@H](C(=O)N1C[C@@H](NC(=O)c2cccc(C(=O)N[C@H]3C[C@@H](C(=O)N[C@H](CO)c4ccccc4)N(C(=O)[C@@H](NC(=O)[C@H](C)NC)C(C)(C)C)C3)c2)C[C@H]1C(=O)N[C@H](CO)c1ccccc1)C(C)(C)C [Compound P3-99]	IC50 [7]: > 1 µM; IC50 [8]: 0.062 µM; IC50 [9]: 0.054 µM
			CN[C@@H](C)C(=O)N[C@@H](CCCCCC[C@H](NC(=O)[C@H](C)NC)C(=O)N1CCC[C@H]1CNC(=O)c1ccccn1)C(=O)N1CCC[C@H]1CNC(=O)c1ccccn1 [Compound P2-47]	IC50 [4]: > 1 µM; IC50 [5]: 0.108 µM; IC50 [6]: 0.153 µM

SMILES	IC50 [1] [µM]	IC50 [2] [µM]	IC50 [3] [µM]	further results
CN[C@@H](C)C(=O)N[C@H](C(=O)N[C@@H](CCNC(=O)c1ccc2cc(C(=O)N[C@H]3C[C@@H](C(=O)N[C@@H]4CCCc5ccccc54)N(C(=O)[C@@H](NC(=O)[C@H](C)NC)C(C)(C)C)C3)ccc2c1)C(=O)N[C@H](C)C(C)C)C(C)C [Compound 185]	> 1	0.008	0.004	
CN[C@@H](C)C(=O)N[C@@H](CCCCCC[C@H](NC(=O)[C@H](C)NC)C(=O)N1CCC[C@H]1CC(=O)N[C@H](C)c1ccccc1)C(=O)N1CCC[C@H]1CC(=O)N[C@H](C)c1ccccc1 [Compound 79]	> 1	> 1	> 1	
CN[C@@H](C)C(=O)N[C@@H](CCCCCC[C@H](NC(=O)[C@H](C)NC)C(=O)N1CCC[C@H]1CNC(=O)c1ccccc1O)C(=O)N1CCC[C@H]1CNC(=O)c1ccccc1O [Compound 20]	> 1	> 1	> 1	
CN[C@@H](C)C(=O)N[C@H](C(=O)N1C[C@@H](NC(=O)c2cccc(C(=O)N[C@H]3C[C@@H](C(=O)NC4CCCc5cc(Br)ccc54)N(C(=O)[C@@H](NC(=O)[C@H](C)NC)C(C)(C)C)C3)c2)C[C@H]1C(=O)NC1CCCc2cc(Br)ccc21)C(C)(C)C (single isomer, unassigned) [Compound 75]	> 1	0.018	0.013	
CCCC[C@H](C)NC(=O)c1cc(C(=O)N[C@H]2C[C@@H](C(=O)N[C@@H]3CCCc4ccccc43)N(C(=O)[C@@H](NC(=O)[C@H](C)NC)C(C)(C)C)C2)cc(C(=O)N[C@H]2C[C@@H](C(=O)N[C@@H]3CCCc4ccccc43)N(C(=O)[C@@H](NC(=O)[C@H](C)NC)C(C)(C)C)C2)c1 [Compound 130]	> 1	0.018	0.019	
CN[C@@H](C)C(=O)N[C@H](C(=O)N1C[C@@H](NC(=O)c2cccc(C(=O)N[C@H]3C[C@@H](C(=O)N[C@@H]4CCCc5ccc(Br)cc54)N(C(=O)[C@@H](NC(=O)[C@H](C)NC)C(C)(C)C)C3)c2)C[C@H]1C(=O)N[C@@H]1CCCc2ccc(Br)cc21)C(C)(C)C (single isomer, unassigned) [Compound 62]	> 1	0.107	0.099	
CN[C@@H](C)C(=O)N[C@H](C(=O)N1C[C@@H](NC(=O)c2cccc(C(=O)N[C@H]3C[C@@H](C(=O)NC4CCOc5ccccc54)N(C(=O)[C@@H](NC(=O)[C@H](C)NC)C(C)(C)C)C3)c2)C[C@H]1C(=O)NC1CCOc2ccccc21)C(C)(C)C (single isomer, unassigned) [Compound 66]		0.012	0.013	IC50 [10]: > 1 µM
CN[C@@H](C)C(=O)N[C@H](C(=O)N1C[C@@H](NC(=O)c2cccc(C(=O)N[C@H]3C[C@@H](C(=O)N[C@@H]4CCCc5c(O)cccc54)N(C(=O)[C@@H](NC(=O)[C@H](C)NC)C(C)(C)C)C3)c2)C[C@H]1C(=O)N[C@@H]1CCCc2c(O)cccc21)C(C)(C)C (single isomer, unassigned) [Compound 60]	> 1	0.044	0.049	
CN[C@@H](C)C(=O)N[C@H](C(=O)N1C[C@@H](NC(=O)c2cccc(C(=O)N[C@H]3C[C@@H](C(=O)NC4CCCc5c(OC)cccc54)N(C(=O)[C@@H](NC(=O)[C@H](C)NC)C(C)(C)C)C3)c2)C[C@H]1C(=O)NC1CCCc2c(OC)cccc21)C(C)(C)C (single isomer, unassigned) [Compound 47]		0.012	0.011	IC50 [10]: > 1 µM
